Results reported in patent US20250064777A1, “PHARMACEUTICAL COMPOSITION FOR TREATMENT OF CASTRATION-RESISTANT PROSTATE CANCER COMPRISING BRUCEANTIN AND NANOPARTICLES” (SAMSUNG LIFE PUBLIC WELFARE FOUNDATION, priority 2021, published 2025).
Where two headings read alike, the source gives them in different places.

Key:
22RV1 cells [1] = assay: Cell growth inhibition assay; type: cell-based; details: concentration of 10 nM or more, FIG. 5
Method: (§1) Castration-resistant prostate cancer cell line 22RV1 cells were cultured with RPMI-1640 (Welgene) medium containing 10% fetal bovine serum (FBS) (Welgene) and 1% penicillin/streptomycin.
(§2) Castration-resistant prostate cancer cell line 22RV1 cells were treated with various concentrations of each of bruceantin (BCT), nano-bruceantin 1 (nano-BCT #1), and nano-bruceantin 2 (nano-BCT #2) and subjected to cell growth inhibition assay and colony formation assay. Reporter gene assay was performed by transfecting 22RV1 cells with an MMTV-LUC reporter, which can measure the transcriptional activities of AR and AR-V7, and treating the cells with various concentrations of each of BCT, nano-BCT #1, and nano-BCT #2 depending on the presence or absence of the androgen dihydrotestosterone (DHT) (DHT+, AR transcriptional activity measurement condition; DHT−, AR-V7 transcriptional activity measurement condition). Immunoblotting was performed by treating 22RV1 cells with various concentrations of each of BCT and nano-BCT, extracting protein from the cells, electrophoresise protein on 4 to 12% SDS-PAGE gel, and transferring the electrophoresed protein to a PVDF membrane, followed by incubation with antibody.

[2] = Solubility of nano-bruceantin in aqueous solution (visual examination, UV-Vis spectroscopy); type: physicochemical
AR/AR-V7 [3] = details: castration-resistant prostate cancer cell line 22RV1 cells; KR 10-2020-0139625; cited from earlier work
22RV1 cells [4] = assay: Colony formation assay; type: cell-based; details: various concentrations, FIG. 6
Method: as §1, §2

nude mice [5] = assay: Short-term toxicity of bruceantin and nano-bruceantin; type: in vivo; details: 5 mg/kg daily for 7 days, FIG. 3
Method: (§3) As Experimental Animals, 6-Week-Old Male Nude Mice (Orient Bio, Korea) were used.
Mice were divided into a nanoparticle-administered group (nano-Veh), a phosphate buffer saline-administered group (PBS), a nano-bruceantin-administered group (nano-BCT), and a bruceantin-administered group (free-BCT). The nano-BCT group was orally administered nano-bruceantin at 5 mg/kg daily for 7 days, and the free-BCT group was orally administered bruceantin at 5 mg/kg daily for 7 days.

AR/AR-V7 [6] = details: androgen-dependent LNCaP cells; KR 10-2020-0139625; cited from earlier work
nude mice [7] = assay: Long-term toxicity of bruceantin and nano-bruceantin; type: in vivo; details: 2 mg/kg every two days for 17 days, FIG. 4
Method: as §3
The nano-BCT group was orally administered nano-bruceantin at 2 mg/kg every two days for 17 days, and the free-BCT group was orally administered bruceantin at 2 mg/kg every two days for 17 days.

CWR22RV1 = CWR22RV1 xenograft mice: tumor volume and bioluminescence; type: in vivo; details: oral, 2 mg/kg every two days for 19 days
Method: Castration-resistant prostate cancer cell line CWR22RV1 was purchased from ATCC (USA), and xenograft mice were constructed by subcutaneously injecting CWR22RV1 into nude mice.
The xenograft mice were divided into a nanoparticle-treated group (nano-Veh), a control group (free-Veh), a nano-bruceantin-treated group (nano-BCT), and a bruceantin-treated group (free-BCT). The nano-BCT group and the free-BCT group were orally administered nano-bruceantin and bruceantin, respectively, at 2 mg/kg every two days for 19 days. Thereafter, tumor volume and bioluminescence were measured for each treated group.

AR [8] = assay: MMTV-LUC reporter gene assay, DHT+ (AR transcriptional activity); type: cell-based; details: 22RV1 cells, FIG. 7
Method: as §1, §2

AR [9] = assay: Immunoblotting for AR in 22RV1 cells; type: cell-based; details: various concentrations, FIG. 8
Method: as §1, §2

AR-V7 [10] = assay: Immunoblotting for AR-V7 in 22RV1 cells; type: cell-based; details: various concentrations, FIG. 8
Method: as §1, §2

AR-V7 [11] = assay: MMTV-LUC reporter gene assay, DHT− (AR-V7 transcriptional activity); type: cell-based; details: 22RV1 cells, FIG. 7
Method: as §1, §2

COC(=O)[C@@]12OC[C@]34[C@H]([C@@H](O)[C@@H]1O)[C@@]1(C)CC(=O)C(O)=C(C)[C@@H]1C[C@H]3OC(=O)[C@H](OC(=O)/C=C(\C)C(C)C)[C@@H]24 [bruceantin]
cell growth inhibitory effect, compared between groups (22RV1 cells [1]): similar | solubility [2]: < 100 µg/mL | transcriptional activity of AR/AR-V7 (AR/AR-V7 [3]): simultaneously and strongly inhibit | colony formation, compared between groups (22RV1 cells [4]): no significant difference | side effects upon short-term oral administration (nude mice [5]): accompanied by acute side effects such as exophthalmos, sudden death, and weight loss | transcriptional activity of AR/AR-V7 (AR/AR-V7 [6]): simultaneously and strongly inhibit | side effects upon long-term oral administration (nude mice [7]): accompanied by side effects such as exophthalmos, sudden death, and weight loss | tumor volume (CWR22RV1; FIG. 9): decrease in tumor volume was from day 13 | bioluminescence (CWR22RV1; FIG. 10): decrease in bioluminescence | AR transcriptional activity (reporter gene), compared between groups (AR [8]): no significant difference | AR protein (immunoblotting) (AR [9]): decreased | AR-V7 protein (immunoblotting) (AR-V7 [10]): decreased | AR-V7 transcriptional activity (reporter gene), compared between groups (AR-V7 [11]): no significant difference
